One test concerns A549 cells. The test is described as follows: ATPLITE antiproliferative assay, A549. The test is classed as cell-based. The settings on record: Homo sapiens, 72 h drug treatment. On the procedure:
(§1) A549 (Non Small Cell Lung Cancer—ATCC® CCL-185™) and MDA-MB-231 (breast adenocarcinoma—ATCC® HTB-26m) cells were cultured in Minimum Essential Medium Eagle (MEM) with 5% fetal calf serum (FCS) and Dulbecco's modified Eagle Medium (DMEM) with 10% FCS respectively. MCF7 (breast ductal carcinoma—ATCC® HTB-22m) and SN-12C (kidney carcinoma—ATCC) cells were maintained in RPMI1640 medium (without phenol red for MCF7 cells) containing 10% FCS. All the media were supplemented with fungizone (1.25 μg/mL) and penicillin-streptomycin (100 U/100 μg/mL). Cells were cultured under standard conditions in an incubator at 37° C., 5% CO2 and 95% atmospheric humidity.
(§2) Selected drugs were investigated for their antiproliferative activity using an ATPLITE® proliferation assay (Perkin Elmer, Villebon sur Yvette, France) on a comprehensive panel of 4 cell lines. […] On day 4, cell viability was evaluated by dosing the ATP released by viable cells. The number of viable cells was analyzed in comparison with the number of solvent treated cells. The EC50 values were determined with curve fitting analysis (non linear regression model with a sigmoidal dose response, variable hill slope coefficient), performed with the algorithm provided by the […]® Software ([…]® Software Inc., CA, USA).

A further test deals with MDA-MB-231 cells. In words: ATPLITE antiproliferative assay, MDA-MB-231. Particulars: Homo sapiens, 72 h drug treatment. The test is classed as cell-based. How it is done:
as §1, §2
Background: In ATP-based viability assays light output follows the ATP content of the culture.

Where a SMILES comes first, the peptide text is derived from it. [ ]: non-standard residue; d: D form. The star is where a group is joined. Dolaproine = CO[C@@H]([C@@H]1CCCN1)[C@@H](C)C(=O)O; Dil = CC[C@H](C)[C@H](NC)[C@@H](CC(=O)O)OC; X2 = CC(C)[C@@H](C(=O)*)N(C)CCc1ccc(O)cc1

One may read the EC50 as the midpoint of the concentration-response curve.

Take `CC[C@H](C)[C@@H]([C@@H](CC(=O)N1CCC[C@H]1[C@H](OC)[C@@H](C)C(=O)N[C@@H](Cc1ccccc1)C(=O)OC)OC)N(C)C(=O)[C@@H](NC(=O)[C@H](C(C)C)N(C)CCc1ccc(O)cc1)C(C)C` [Compound 27, methyl (S)-2-((2R,3R)-3-((S)-1-((3R,4S,5S)-4-((S)-2-((S)-2-((4-hydroxyphenethyl)(methyl)amino)-3-methylbutanamido)-N,3-dimethylbutanamido)-3-methoxy-5-methylheptanoyl)pyrrolidin-2-yl)-3-methoxy-2-methylpropanamido)-3-phenylpropanoate, trifluoroacetic acid] (X2-V[Dil][Dolaproine]F-OMe): the half-maximal effective concentration (EC50) in the test on A549 cells was found to be 0.086 nM; in the test on MDA-MB-231 cells, 0.12 nM.
